Format in all cases: cell-based
The subject of test [1] is CaSki cell line. The test can be described thus: Stemness gene expression of siRNA-transfected cells. Particulars: FIG. 15. As for the experimental part: (§1) MS751 and CaSki were each transfected with siRNAs for BORIS that had been designed to have the sequences shown in the table below in accordance with the protocol described in the Instructions by the manufacturer for the Lipofectamine RNAiMAX used. Cells were analyzed 48 hours after transfection. Trilencer-27 Universal Scrambled Negative Control siRNA (SR30004, Origene) was used as a negative control.

Another test deals with MS751. Description: Sphere formation capability of siRNA-transfected cells. Particulars: FIG. 16-1(b). The procedure:
(§2) Sphere formation has been reported as being one of the indicators of cancer stem cell markers in cervical cancer. Therefore, a spheroid formation assay using a low adherent cell culture plate was carried out. Cervical cancer cell lines (CaSki, TCS, MS751, SKG-IIIb, ME-180, and SiHa) were cultured using a multi well plate having an ultra low adherent surface (Ultra Low Attachment 6-well plate, Corning). Adherent cultured cells were peeled off with a solution containing 0.25% trypsin in 2 mM EDTA, and were plated on each well at 10^3 cells/well. As a medium, one prepared by adding to a serum-free DMEM/F-12 medium 20 ng/mL of h-EGF (acquired from R&D systems), 10 ng/mL of b-FGF (acquired from R&D systems), 1% penicillin/streptomycin (acquired from GIBCO), 4 μg/mL of heparin, and a final concentration of 1% of N2 supplement (acquired from WAKO) was used, culturing was carried out under normal culturing conditions for 7 days or 14 days, and formation of spheroids of 100 μm or greater was confirmed for all of the cell lines (FIG. 1). […]
(§3) MS751 and CaSki were each transfected with siRNAs for BORIS that had been designed to have the sequences shown in the table below in accordance with the protocol described in the Instructions by the manufacturer for the Lipofectamine RNAiMAX used. Cells were analyzed 48 hours after transfection. […]

For a further test, the system named is CaSki. The test is described as above. The settings on record: FIG. 16-1(a). The procedure: as §2, §3
For test [2], the system named is CaSki cell line. The test can be described thus: Cell proliferation of siRNA-transfected cells. The settings on record: FIG. 14-1(b), 14-2. The procedure:
as §1

“rGrGrArArArUrArCrCrArCrGrArUrGrCrArArArUrUrUrCAT [siRNA2]”: the Stemness gene suppression entry with CaSki cell line [1] is “did not occur at all”. For the same substance, the Sphere formation capability result in the test with MS751 and with CaSki was “markedly suppressed” each time. Besides, the Cell proliferation entry with CaSki cell line [2] is “slightly suppressed”.

Source of the values: US11028136B2, “Tumor antigen peptide” (Sapporo Medical University, priority 2014, dated 2021).
